Measured values reported in patent publication US20250360145A1, “CSF-1R INHIBITORS AND USES THEREOF” (Myrobalan Therapeutics, Inc., priority 2022, published 2025).
Like-named read-outs stand apart in the source and are kept apart here.

Experiments:
EOC2 cell = assay: Cell proliferation assay, EOC2; assay type: cell-based, mouse
CSF-1R = CSF-1R (Homo sapiens (Human), UniProt P07333); assay: Biochemical HTRF kinase assay, CSF-1R; details: Table 2; recombinant human CSF-1R;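 further: enzyme incubated with inhibitor plus a substrate and ATP mix for one hour at room temperature before HTRF detection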
Sequence of CSF-1R (P07333 20-972): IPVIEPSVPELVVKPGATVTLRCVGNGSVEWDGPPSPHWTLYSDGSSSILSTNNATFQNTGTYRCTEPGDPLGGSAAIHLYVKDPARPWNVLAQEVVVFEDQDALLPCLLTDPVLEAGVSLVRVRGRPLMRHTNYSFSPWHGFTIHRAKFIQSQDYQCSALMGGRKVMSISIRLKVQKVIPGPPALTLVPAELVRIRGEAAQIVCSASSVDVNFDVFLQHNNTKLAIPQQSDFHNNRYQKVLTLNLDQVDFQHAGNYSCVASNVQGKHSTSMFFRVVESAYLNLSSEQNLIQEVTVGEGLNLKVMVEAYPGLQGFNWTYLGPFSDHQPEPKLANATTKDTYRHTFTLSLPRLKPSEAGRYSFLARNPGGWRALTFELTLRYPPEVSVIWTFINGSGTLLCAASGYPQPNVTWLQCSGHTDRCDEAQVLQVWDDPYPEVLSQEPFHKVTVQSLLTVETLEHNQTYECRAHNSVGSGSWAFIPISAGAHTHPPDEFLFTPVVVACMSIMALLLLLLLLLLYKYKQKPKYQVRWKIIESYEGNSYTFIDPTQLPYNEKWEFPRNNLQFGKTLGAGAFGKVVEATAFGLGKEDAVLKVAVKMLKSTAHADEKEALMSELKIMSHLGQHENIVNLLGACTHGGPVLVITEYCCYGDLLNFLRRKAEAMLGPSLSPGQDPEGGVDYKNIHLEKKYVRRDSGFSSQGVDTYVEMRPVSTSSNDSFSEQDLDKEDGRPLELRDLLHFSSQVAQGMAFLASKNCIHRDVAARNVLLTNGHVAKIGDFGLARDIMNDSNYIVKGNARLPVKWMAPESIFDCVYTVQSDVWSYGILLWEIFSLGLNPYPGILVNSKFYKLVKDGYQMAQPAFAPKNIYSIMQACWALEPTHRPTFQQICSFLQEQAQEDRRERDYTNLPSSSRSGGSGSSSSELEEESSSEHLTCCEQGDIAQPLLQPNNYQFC

[1] = test system: Ba/F3_CSF-1R (stably expressing human CSF-1R kinase); assay: Cell proliferation assay, Ba/F3_CSF-1R; assay type: cell-based
[2] = Mus musculus, 72 h, EOC2 cells, 72 hours treatment, read-out: ECO2 EC50
[3] = Ba/F3_CSF-1R cells, 72 hours treatment, read-out: CSF-1R BaF3 EC50
[4] = EOC2 cells, 72 hours treatment, read-out: ECO2 EC50
[5] = BaF3, 72 h, Ba/F3_CSF-1R cells, 72 hours treatment, read-out: CSF-1R BaF3 EC50

| SMILES | EC50 (EOC2 cell; [2]) | IC50 (CSF-1R) | EC50 [1, 5] | further results |
| --- | --- | --- | --- | --- |
| COc1cnc2c(Cc3cnc(OCc4cnc5c(c4)CC[C@H]5OC)c(OC)c3)ccnc2c1 (stereo in doubt) [Example 104] | 41 nM | 2.4 nM | – | EC50 [1, 3]: 53.2 nM |
| COc1cnc2c(Cc3cnc(OCc4cnc5c(c4)CC[C@H]5OC)c(OC)c3)ccnc2c1 (stereo in doubt) [Example 105] | – | 2.4 nM | – | EC50 (EOC2 cell; [4]): 65 nM; EC50 [1, 3]: 108 nM |
| COc1cnc2c(Cc3cnc(OCc4cc5n(n4)CCO[C@H]5C)c(OC)c3)ccnc2c1 (stereo in doubt) [Example 114] | – | 1.7 nM | – | EC50 (EOC2 cell; [4]): 37.9 nM; EC50 [1, 3]: 75.7 nM |
| COc1cnc2c(Cc3cnc(OCc4cc5n(n4)CCO[C@H]5C)c(OC)c3)ccnc2c1 (stereo in doubt) [Example 115] | – | 4 nM | – | EC50 (EOC2 cell; [4]): 81.9 nM; EC50 [1, 3]: 158 nM |
| COc1ccc(COc2ccc(Cc3ccnc4cc(OC)ccc34)cc2OC)cc1 [Example 1] | 42 nM | – | 42.6 nM | – |
| COc1ccc(COc2ccc(Cc3ccnc4cnccc34)cc2OC)cc1 [Example 2, 4-(3-methoxy-4-((4-methoxybenzyl)oxy)benzyl)-1,7-naphthyridine] | 126 nM | 13.4 nM | 75 nM | – |
| COc1ccc(COc2ccc(Cc3ccnc4ccccc34)cc2OC)cc1 [Example 3] | – | – | 89.2 nM | – |
| COc1ccc(COc2ccc(Cc3ccnc4cc(OC)cnc34)cc2OC)cc1 [Example 4] | 22.6 nM | 8.7 nM | 44.6 nM | – |
| COc1ccc(COc2ccc(Cc3ncnc4cc(OC)ccc34)cc2OC)cc1 [Example 5] | 310 nM | 21 nM | 263 nM | – |
| COc1ccc2c(Cc3ccc(OCc4ccn5ccnc5c4)c(OC)c3)ccnc2c1 [Example 6, 4-(4-(imidazo[1,2-a]pyridin-7-ylmethoxy)-3-methoxybenzyl)-7-methoxy quinoline] | 592 nM | 8.2 nM | 551 nM | – |
| COc1ccc2c(Cc3ccc(OCc4ccc5nccn5c4)c(OC)c3)ccnc2c1 [Example 7] | 328 nM | 5.3 nM | 305 nM | – |
| COc1ccc2c(Cc3ccc(OCc4cccnc4)c(OC)c3)ccnc2c1 [Example 8] | – | – | 546 nM | – |
| COc1ccc2c(Cc3ccc(OCc4ccccn4)c(OC)c3)ccnc2c1 [Example 9] | – | 169 nM | 901 nM | – |
| COc1ccc2c(Cc3ccc(OCc4ccncc4)c(OC)c3)ccnc2c1 [Example 10] | – | 118 nM | > 1000 nM | – |
| COc1ccc2c(Cc3ccc(OCc4nc5ccccc5n4C)c(OC)c3)ccnc2c1 [Example 11] | – | 149 nM | > 1000 nM | – |
| COc1ccc2c(Cc3ccc(OCc4ccc5cnn(C)c5c4)c(OC)c3)ccnc2c1 [Example 12] | – | 299 nM | > 1000 nM | – |
| COc1ccc(COc2ncc(Cc3ccnc4cc(OC)ccc34)cc2OC)nc1 [Example 13, 7-methoxy-4-((5-methoxy-6-((5-methoxypyridin-2-yl)methoxy)pyridin-3-yl)methyl)quinolone] | 151 nM | – | 176 nM | – |
| COc1ccc2c(Cc3ccc(OCc4ccc(C(F)(F)F)cc4)c(OC)c3)ccnc2c1 [Example 14] | 132 nM | 118 nM | 157 nM | – |
| COc1ccc(COc2ccc(Cc3ccnc4ccncc34)cc2OC)cc1 [Example 17] | 180 nM | 5.7 nM | 185 nM | – |
| COc1ccc2c(Cc3ccc(OCc4cn5ccccc5n4)c(OC)c3)ccnc2c1 [Example 18, 4-(4-(imidazo[1,2-a]pyridin-2-ylmethoxy)-3-methoxybenzyl)-7-methoxy quinoline] | 272 nM | 9.4 nM | 196 nM | – |

| SMILES | EC50 (EOC2 cell; [2]) | IC50 (CSF-1R) | EC50 [1, 5] | further results |
| --- | --- | --- | --- | --- |
| COc1ccc(COc2ncc(Cc3ccnc4cnccc34)cc2OC)nc1 [Example 19, 4-((5-methoxy-6-((5-methoxypyridin-2-yl)methoxy)pyridin-3-yl)methyl)-1,7-naphthyridine] | – | 47.6 nM | > 1000 nM | – |
| COc1ccc2c(Cc3ccc(OCc4ccc5ccnn5c4)c(OC)c3)ccnc2c1 [Example 20] | 130 nM | 11 nM | 134 nM | – |
| COc1ccc2c(Cc3ccc(OCc4ccc5ncnn5c4)c(OC)c3)ccnc2c1 [Example 21] | 492 nM | 12.6 nM | 509 nM | – |
| COc1ccc(COc2ncc(Cc3ccnc4cncnc34)cc2OC)nc1 [Example 22, 8-((5-methoxy-6-((5-methoxypyridin-2-yl)methoxy)pyridin-3-yl)methyl)pyrido[3,2-d]pyrimidine] | – | 64 nM | > 1000 nM | – |
| COc1ccc2c(Cc3ccc(OCc4cc(C)nn4C)c(OC)c3)ccnc2c1 [Example 23] | – | 8 nM | 323 nM | – |
| COc1ccc(COc2ccc(Cc3ccnc4ccc(F)cc34)cc2OC)cc1 [Example 24] | 239 nM | 25 nM | 177 nM | – |
| COc1ccc2c(Cc3ccc(OCc4ccn(C)c(=O)c4)c(OC)c3)ccnc2c1 [Example 25] | – | 40 nM | 583 nM | – |
| COc1ccc2c(Cc3ccc(OCc4ccc(=O)n(C)c4)c(OC)c3)ccnc2c1 [Example 26] | – | 5 nM | 283 nM | – |
| COc1ccc2c(Cc3ccc(OCc4cccc(C(F)(F)F)c4)c(OC)c3)ccnc2c1 [Example 27] | – | 117 nM | 207 nM | – |
| COc1cccc(COc2ccc(Cc3ccnc4cc(OC)ccc34)cc2OC)c1 [Example 28] | – | 25.7 nM | 356 nM | – |
| COc1ccc2c(Cc3ccc(OCc4ccccc4OC)c(OC)c3)ccnc2c1 [Example 29] | – | 73.9 nM | 873 nM | – |
| COc1ccc2c(Cc3ccc(OCc4ccn5nccc5c4)c(OC)c3)ccnc2c1 [Example 30] | 249 nM | 7.9 nM | 214 nM | – |
| COc1ccc2c(Cc3cnc(OCc4cnn(C)c4)c(OC)c3)ccnc2c1 [Example 31] | > 1000 nM | 21.3 nM | > 1000 nM | – |
| COc1cnc2c(Cc3cnc(OCc4cnn(C)c4)c(OC)c3)ccnc2c1 [Example 37] | > 1000 nM | – | > 1000 nM | – |
| COc1cnc2c(Cc3cnc(OCc4ccc(Cl)cn4)c(OC)c3)ccnc2c1 [Example 58] | 42.9 nM | – | 93.9 nM | – |
| COc1ccc(COc2ncc(Cc3ccnc4cc(Cl)cnc34)cc2OC)nc1 [Example 62, 3-chloro-8-((5-methoxy-6-((5-methoxypyridin-2-yl)methoxy)pyridin-3-yl)methyl)-1,5-naphthyridine] | – | – | – | EC50 (EOC2 cell; Mus musculus, 72 h, read-out: ECO2 EC50 (nM)): 496 nM; EC50 ([1]; BaF3, 72 h, read-out: CSF-1R BaF3 EC50 (nM)): 177 nM |
| COc1ccc(COc2ncc(Cc3ccnc4cc(N5CCOCC5)cnc34)cc2OC)nc1 [Example 119, 4-(8-((5-methoxy-6-((5-methoxypyridin-2-yl)methoxy)pyridin-3-yl)methyl)-1,5-naphthyridin-3-yl)morpholine] | 8 nM | – | 15.9 nM | – |
| COc1ccc(COc2ncc(Cc3ccnc4cc(N5CC6CC(C5)O6)cnc34)cc2OC)nc1 [Example 131] | 6.7 nM | – | 9.9 nM | – |
| COc1ccc(COc2ncc(Cc3ccnc4cc(C5CC5)cnc34)cc2OC)nc1 [Example 137] | 65 nM | – | 46.7 nM | – |
| COc1cnc2c(Cc3ccc4nc(N5CCC(OC)CC5)cnc4c3)ccnc2c1 [Example 153, 3-methoxy-8-[[2-(4-methoxy-1-piperidyl)quinoxalin-6-yl]methyl]-1,5-naphthyridine] | > 1000 nM | – | > 1000 nM | – |
